Among the data in patent publication US8735406B2, “8-oxodihydropurine derivative” (Dainippon Sumitomo Pharma Co., Ltd., priority 2009, dated 2014) are inhibition and IC50 values, retold here.

Broadly, the inhibition is the change of the read-out against control, counted positive when it falls. As usually defined, the IC50 is the concentration that gives 50% inhibition.

The structures appear in SMILES notation.

The test has as its target T1, FAAH (Rattus norvegicus, UniProt P97612).
T1 construct: Preparation of Rat Brain Membranes Preparations (FAAH Enzyme Solution); from tissue; host or cells: rat cerebrum (brain membrane preparation)
T1 sequence (P97612 1-579): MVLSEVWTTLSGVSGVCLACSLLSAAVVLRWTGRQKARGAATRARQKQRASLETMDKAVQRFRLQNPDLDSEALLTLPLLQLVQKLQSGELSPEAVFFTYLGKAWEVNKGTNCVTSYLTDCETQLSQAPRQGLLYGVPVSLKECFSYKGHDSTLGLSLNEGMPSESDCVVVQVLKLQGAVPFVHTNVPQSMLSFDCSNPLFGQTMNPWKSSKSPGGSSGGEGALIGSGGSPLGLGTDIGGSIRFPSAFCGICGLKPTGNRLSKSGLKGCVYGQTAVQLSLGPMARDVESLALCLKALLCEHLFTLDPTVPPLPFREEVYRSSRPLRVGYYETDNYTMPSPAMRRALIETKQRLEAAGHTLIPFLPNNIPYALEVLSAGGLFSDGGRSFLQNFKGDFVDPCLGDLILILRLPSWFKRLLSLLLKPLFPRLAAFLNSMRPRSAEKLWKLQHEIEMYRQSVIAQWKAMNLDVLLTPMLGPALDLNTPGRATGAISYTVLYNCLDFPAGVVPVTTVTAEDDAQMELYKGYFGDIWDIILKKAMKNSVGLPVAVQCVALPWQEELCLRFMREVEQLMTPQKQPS
As to the kind of experiment: Determination of FAAH inhibitory activity in rat (rat brain membrane preparations, [3H]-anandamide hydrolysis). The format is biochemical. As to conditions: rat brain membrane preparations; for inhibition at 0.1 µM: 100 nM test substance, read-out: FAAH Inhibition, Inhibition Rate at 100 nM; for IC50: test substance 0.1 nM to 1 μM, read-out: FAAH Inhibition IC50. In outline: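 Rat cerebrum membranes (100 μg/mL protein) preincubated 10 min at 37 °C with compound (1% DMSO) in pH 7.6 Tris buffer with 1.5% BSA. Substrate 2 nM [3H]-anandamide plus 2 μM anandamide added for 10 min at 37 °C. [3H]-ethanolamine in the aqueous phase after chloroform/methanol extraction was scintillation counted; IC50 over 0.1 nM–1 μM.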

On to `CCOCc1ncc2c(n1)n(C)c(=O)n2C(=O)N1CC(c2ccccc2)C1` [Example 460, 2-(Ethoxymethyl)-9-methyl-7-[(3-phenylazetidin-1-yl)carbonyl]-7,9-dihydro-8H-purine-8-one], for which the inhibition at 0.1 µM worked out at 108% and the half-inhibitory concentration (IC50) came to 11 nM.

Consider `CCOCc1ncc2c(n1)n(C)c(=O)n2C(=O)N1CC(c2cccc(F)c2)C1` [Example 462, 2-(Ethoxymethyl)-7-{[3-(3-fluorophenyl)azetidin-1-yl]carbonyl}-9-methyl-7,9-dihydro-8H-purine-8-one], for which the inhibition at 0.1 µM turned out to be 113% and the IC50 is 10 nM.

Consider `CCOCc1ncc2c(n1)n(C)c(=O)n2C(=O)N1CC(c2ccc(OCC)cc2)C1` [Example 463, 2-(Ethoxymethyl)-7-{[3-(4-ethoxyphenyl)azetidin-1-yl]carbonyl}-9-methyl-7,9-dihydro-8H-purine-8-one], for which the inhibition at 0.1 µM amounted to 136% and the IC50 worked out at 10 nM.

For the compound `CCOCc1ncc2c(n1)n(C)c(=O)n2C(=O)N1CC(c2ccccc2F)C1` [Example 465, 2-(Ethoxymethyl)-7-{[3-(2-fluorophenyl)azetidin-1-yl]carbonyl}-9-methyl-7,9-dihydro-8H-purine-8-one], the inhibition at 0.1 µM came to 96% and the IC50 turned out to be 10 nM.

For `COCc1ncc2c(n1)n(C)c(=O)n2C(=O)N1CC[C@@H](Oc2ccccc2F)C1` [Example 474], the inhibition at 0.1 µM came out at 71% and the IC50 amounted to 54 nM.

With `COCc1ncc2c(n1)n(C)c(=O)n2C(=O)N1CC[C@@H](Oc2cccc(C)c2)C1` [Example 475], the inhibition at 0.1 µM turned out to be 46%.

Take `COCc1ncc2c(n1)n(C)c(=O)n2C(=O)N1CC[C@@H](Oc2ccccc2C)C1` [Example 476]: the inhibition at 0.1 µM is 76% and the IC50 was 57 nM.

For `COCc1ncc2c(n1)n(C)c(=O)n2C(=O)N1CC[C@H](Oc2ccccc2)C1` [Example 477], the inhibition at 0.1 µM came out at 88% and the IC50 came to 26 nM.

`COCc1ncc2c(n1)n(C)c(=O)n2C(=O)N1CC(Oc2ccccc2C)C1` [Example 478]: the inhibition at 0.1 µM is 46% and the concentration for half-maximal inhibition (IC50) was found to be 118 nM.

For the compound `COCc1ncc2c(n1)n(C)c(=O)n2C(=O)N1CC(Oc2ccccc2F)C1` [Example 479, 7-{[3-(2-Fluorophenoxy)azetidin-1-yl]carbonyl}-2-(methoxymethyl)-9-methyl-7,9-dihydro-8H-purine-8-one], the inhibition at 0.1 µM turned out to be 50% and the IC50 came to 101 nM.

For `COCc1ncc2c(n1)n(C)c(=O)n2C(=O)N1CC[C@@H](Oc2ccc(F)cc2)C1` [Example 480, 7-{[(3R)-3-(4-Fluorophenoxy)pyrrolidin-1-yl]carbonyl}-2-(methoxymethyl)-9-methyl-7,9-dihydro-8H-purine-8-one], the inhibition at 0.1 µM was determined as 88% and the IC50 is 83 nM.

Consider `COCc1ncc2c(n1)n(C)c(=O)n2C(=O)N1CC[C@H](Oc2ccc(F)cc2)C1` [Example 481], for which the inhibition at 0.1 µM came out at 102% and the IC50 was 3 nM.

Consider `COCc1ncc2c(n1)n(C)c(=O)n2C(=O)N1CC[C@H](Oc2cccc(F)c2)C1` [Example 482, 7-{[(3S)-3-(3-Fluorophenoxy)pyrrolidin-1-yl]carbonyl}-2-(methoxymethyl)-9-methyl-7,9-dihydro-8H-purine-8-one], for which the inhibition at 0.1 µM worked out at 104% and the IC50 was 10 nM.

Regarding `COCc1ncc2c(n1)n(C)c(=O)n2C(=O)N1CC[C@H](Oc2ccccc2F)C1` [Example 483, 7-{[(3S)-3-(2-Fluorophenoxy)pyrrolidin-1-yl]carbonyl}-2-(methoxymethyl)-9-methyl-7,9-dihydro-8H-purine-8-one], the inhibition at 0.1 µM turned out to be 110% and the IC50 was 10 nM.

Regarding `COCc1ncc2c(n1)n(C)c(=O)n2C(=O)N1CC[C@H](Oc2ccc(C)cc2)C1` [Example 484, 2-(Methoxymethyl)-9-methyl-7-{[(3S)-3-(4-methylphenoxy)pyrrolidin-1-yl]carbonyl}-7,9-dihydro-8H-purine-8-one], the inhibition at 0.1 µM was determined as 86% and the IC50 worked out at 9 nM.

Consider `COCc1ncc2c(n1)n(C)c(=O)n2C(=O)N1CC[C@H](Oc2cccc(C)c2)C1` [Example 485, 2-(Methoxymethyl)-9-methyl-7-{[(3S)-3-(3-methylphenoxy)pyrrolidin-1-yl]carbonyl}-7,9-dihydro-8H-purine-8-one], for which the inhibition at 0.1 µM stood at 112% and the IC50 was found to be 3 nM.

Turning to `COCc1ncc2c(n1)n(C)c(=O)n2C(=O)N1CC[C@H](Oc2ccccc2C)C1` [Example 486, 2-(Methoxymethyl)-9-methyl-7-{[(3S)-3-(2-methylphenoxy)pyrrolidin-1-yl]carbonyl}-7,9-dihydro-8H-purine-8-one], the inhibition at 0.1 µM came out at 113% and the IC50 amounted to 2 nM.

Consider `COCc1ncc2c(n1)n(C)c(=O)n2C(=O)N1CC[C@@H](Oc2cccc(Cl)c2)C1` [Example 487, 7-{[(3R)-3-(3-Chlorophenoxy)pyrrolidin-1-yl]carbonyl}-2-(methoxymethyl)-9-methyl-7,9-dihydro-8H-purine-8-one], for which the inhibition at 0.1 µM stood at 99% and the IC50 is 15 nM.

Turning to `COCc1ncc2c(n1)n(C)c(=O)n2C(=O)N1CC[C@@H](Oc2ccccc2)C1` [Example 488, 2-(Methoxymethyl)-9-methyl-7-{[(3R)-3-phenoxypyrrolidin-1-yl]carbonyl}-7,9-dihydro-8H-purine-8-one], the inhibition at 0.1 µM was 74% and the IC50 worked out at 43 nM.

In the case of `COCc1ncc2c(n1)n(C)c(=O)n2C(=O)N1CC[C@H](Oc2ccc(Cl)cc2)C1` [Example 489, 7-{[(3S)-3-(4-Chlorophenoxy)pyrrolidin-1-yl]carbonyl}-2-(methoxymethyl)-9-methyl-7,9-dihydro-8H-purine-8-one], the inhibition at 0.1 µM worked out at 98% and the IC50 was 1 nM.

As to `COCc1ncc2c(n1)n(C)c(=O)n2C(=O)N1CC[C@H](Oc2cccc(Cl)c2)C1` [Example 490, 7-{[(3S)-3-(3-Chlorophenoxy)pyrrolidin-1-yl]carbonyl}-2-(methoxymethyl)-9-methyl-7,9-dihydro-8H-purine-8-one], the inhibition at 0.1 µM was found to be 97% and the IC50 was 2 nM.

On to `COCc1ncc2c(n1)n(C)c(=O)n2C(=O)N1CC[C@H](Oc2ccccc2Cl)C1` [Example 491, 7-{[(3S)-3-(2-Chlorophenoxy)pyrrolidin-1-yl]carbonyl}-2-(methoxymethyl)-9-methyl-7,9-dihydro-8H-purine-8-one], for which the inhibition at 0.1 µM turned out to be 100% and the 50% inhibitory concentration (IC50) was 2 nM.

For the compound `COCc1ncc2c(n1)n(C)c(=O)n2C(=O)N1CC(COc2ccc(F)cc2)C1` [Example 492, 7-({3-[(4-Fluorophenoxy)methyl]azetidin-1-yl}carbonyl)-2-(methoxymethyl)-9-methyl-7,9-dihydro-8H-purine-8-one], the inhibition at 0.1 µM worked out at 103% and the half-maximal inhibitory concentration (IC50) amounted to 2 nM.

Turning to `CN(C)C(=O)n1c(=O)n(C)c2cnc(CCc3ccc(OC(F)F)cc3)nc21` [Example 493, 2-{2-[4-(difluoromethoxy)phenyl]ethyl}-N,N,7-trimethyl-8-oxo-7,8-dihydro-9H-purine-9-carboxamide], the inhibition at 0.1 µM came to 79% and the IC50 turned out to be 27 nM.
